Laboratory results published in PubChem BioAssay AID248 (DTP/NCI, 2004).
“And” between values parts separate entries of the source, which are not always exact repeats. Equal entries are not always repeated. Inconclusive results and toxic doses are left out. Cut-off read from the data, not from the text of the source: active = T/C of 150% or more; inactive = T/C below 125%.

System: L1210 leukemia ip in BDF1 mice, survival T/C
Test: NCI In Vivo Anticancer Drug Screen. Data for tumor model L1210 Leukemia (intraperitoneal) in B6D2F1 (BDF1) mice
Conditions: endpoint: mean survival time, higher = longer survival
How it was run: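 Tumor was transplanted into mice, which were then dosed with test compound or vehicle alone. Survival was recorded for each group, and the treated figure was expressed relative to the control figure.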

[1] = dose: 100.0 mg/kg/injection, schedule: Q01DX001 (ip), vehicle: saline
[2] = dose: 200.0 mg/kg/injection, schedule: Q01DX001 (ip), vehicle: saline
[3] = dose: 400.0 mg/kg/injection, schedule: Q01DX001 (ip), vehicle: saline
[4] = dose: 100.0 mg/kg/injection, schedule: Q04DX002 (ip), vehicle: Klucel (hydroxypropylcellulose) (HPC)
[5] = dose: 200.0 mg/kg/injection, schedule: Q04DX002 (ip), vehicle: Klucel (hydroxypropylcellulose) (HPC)
[6] = dose: 400.0 mg/kg/injection, schedule: Q04DX002 (ip), vehicle: Klucel (hydroxypropylcellulose) (HPC)
[7] = dose: 100.0 mg/kg/injection, schedule: Q04DX003 (ip), vehicle: saline
[8] = dose: 200.0 mg/kg/injection, schedule: Q04DX003 (ip), vehicle: saline
[9] = dose: 100.0 mg/kg/injection, schedule: Q01DX009 (ip), vehicle: saline with Tween-80
[10] = dose: 100.0 mg/kg/injection, schedule: Q04DX003 (ip), vehicle: saline with Tween-80
[11] = dose: 200.0 mg/kg/injection, schedule: Q04DX003 (ip), vehicle: saline with Tween-80
[12] = dose: 400.0 mg/kg/injection, schedule: Q04DX003 (ip), vehicle: saline with Tween-80
[13] = dose: 12.5 mg/kg/injection, schedule: Q01DX009 (ip), vehicle: saline
[14] = dose: 25.0 mg/kg/injection, schedule: Q01DX009 (ip), vehicle: saline
[15] = dose: 50.0 mg/kg/injection, schedule: Q01DX009 (ip), vehicle: saline

Measured: T/C

Nc1nc(N)c(-c2ccc(Cl)c(Cl)c2)c(COc2ccc(CNS(=O)(=O)c3ccc(S(=O)(=O)F)cc3)cc2Cl)n1
inactive: dose: 25.0 mg/kg/injection, schedule: Q01DX001 (ip), vehicle: Klucel (hydroxypropylcellulose) (HPC) 94 % of control | dose: 50.0 mg/kg/injection, schedule: Q01DX001 (ip), vehicle: Klucel (hydroxypropylcellulose) (HPC) 94 % of control | dose: 100.0 mg/kg/injection, schedule: Q01DX001 (ip), vehicle: Klucel (hydroxypropylcellulose) (HPC) 96 % of control

NC(=O)C(=O)c1ccco1
inactive: [1] 92 % of control | [2] 101 % of control | [3] 108 % of control

CCOC(=O)CCCCCC(C(=O)OCC)c1nc2ccccc2[nH]c1=O (configuration not stated)
inactive: [4] 99 % of control | [5] 101 % of control | [6] 86 % of control

C=CCN=C(N)C(N)=NCC=C
inactive: [7] 96 % of control | [8] 101 % of control | dose: 400.0 mg/kg/injection, schedule: Q04DX003 (ip), vehicle: saline 103 % of control

O=C(O)/C=C/[P+](c1ccccc1)(c1ccccc1)c1ccccc1
inactive: dose: 5.0 mg/kg/injection, schedule: Q01DX001 (ip), vehicle: saline 101 % of control | dose: 10.0 mg/kg/injection, schedule: Q01DX001 (ip), vehicle: saline 106 % of control | dose: 20.0 mg/kg/injection, schedule: Q01DX001 (ip), vehicle: saline 101 % of control

S=c1nc[nH]c2c1ncn2Cc1ccc(Cl)c(Cl)c1
inactive: [5] 94 % of control | [6] 108 % of control

O=C(c1ccccc1)c1ccc(O)c2ncccc12
inactive: [4] 102 % of control | [5] 102 % of control | [6] 98 % of control

COc1ccc(/C=N\NC(=O)N/N=C/c2ccc(OC)c(Br)c2)cc1Br
inactive: dose: 50.0 mg/kg/injection, schedule: Q04DX002 (ip), vehicle: Klucel (hydroxypropylcellulose) (HPC) 106 % of control | [4] 98 % of control and 103 % of control | [5] 88 % of control | [6] 91 % of control

COC(=O)C(CSCSC)NC(=O)/C=C/c1ccco1 (configuration not stated)
inactive: dose: 25.0 mg/kg/injection, schedule: Q01DX009 (ip), vehicle: saline with Tween-80 107 % of control | dose: 50.0 mg/kg/injection, schedule: Q01DX009 (ip), vehicle: saline with Tween-80 107 % of control | [9] 102 % of control and 91 % of control | [10] 93 % of control | [11] 101 % of control | [12] 95 % of control

CCCCCCCCCCCCCCCCOc1cccc(C=O)c1
inactive: [10] 97 % of control | [11] 93 % of control | [12] 116 % of control

CCCCOCCN
inactive: [13] 104 % of control | [14] 101 % of control | [15] 106 % of control

OCCSc1ncc2cnccn12
inactive: dose: 100.0 mg/kg/injection, schedule: Q01DX009 (ip), vehicle: water 98 % of control | dose: 100.0 mg/kg/injection, schedule: Q04DX003 (ip), vehicle: water 101 % of control | dose: 200.0 mg/kg/injection, schedule: Q01DX009 (ip), vehicle: water 96 % of control | dose: 200.0 mg/kg/injection, schedule: Q04DX003 (ip), vehicle: water 93 % of control | dose: 400.0 mg/kg/injection, schedule: Q01DX009 (ip), vehicle: water 102 % of control | dose: 400.0 mg/kg/injection, schedule: Q04DX003 (ip), vehicle: water 95 % of control

c1ccc2c3c(ccc2c1)OCCCCCOc1ccc2ccccc2c1-c1c(ccc2ccccc12)OCCOCCOc1ccc2ccccc2c1-3
inactive: dose: 100.0 mg/kg/injection, schedule: Q01DX001 (ip), vehicle: saline with Tween-80 92 % of control | dose: 200.0 mg/kg/injection, schedule: Q01DX001 (ip), vehicle: saline with Tween-80 92 % of control | dose: 400.0 mg/kg/injection, schedule: Q01DX001 (ip), vehicle: saline with Tween-80 98 % of control

[Cl][Hg][CH2]CC1CC=CCC1 (configuration not stated)
inactive: dose: 3.13 mg/kg/injection, schedule: Q01DX009 (ip), vehicle: saline sonified 92 % of control | dose: 6.25 mg/kg/injection, schedule: Q01DX009 (ip), vehicle: saline sonified 94 % of control | dose: 6.25 mg/kg/injection, schedule: Q04DX003 (ip), vehicle: Klucel (hydroxypropylcellulose) (HPC) 98 % of control | dose: 12.5 mg/kg/injection, schedule: Q01DX009 (ip), vehicle: saline sonified 100 % of control | dose: 12.5 mg/kg/injection, schedule: Q04DX003 (ip), vehicle: Klucel (hydroxypropylcellulose) (HPC) 87 % of control

Nc1[nH]c(=O)[nH]c(=O)c1N=Nc1ccc(S(=O)(=O)Nc2ncccn2)cc1
inactive: [1] 94 % of control | [2] 98 % of control | [3] 96 % of control

CCOC(=O)c1ncc2cnccn12
inactive: [15] 92 % of control | dose: 100.0 mg/kg/injection, schedule: Q01DX009 (ip), vehicle: saline 120 % of control | [7] 107 % of control | dose: 200.0 mg/kg/injection, schedule: Q01DX009 (ip), vehicle: saline 94 % of control | [8] 104 % of control

CNC(=O)N(C)N
inactive: [13] 97 % of control | [14] 95 % of control | [15] 119 % of control

CCOP(=O)(OCC)C(C)C#N (configuration not stated)
inactive: dose: 15.0 mg/kg/injection, schedule: Q01DX001 (ip), vehicle: saline 95 % of control | dose: 30.0 mg/kg/injection, schedule: Q01DX001 (ip), vehicle: saline 100 % of control

O=C(Nc1ccccc1C(F)(F)F)C(c1ccccc1)c1ccccc1
inactive: dose: 100.0 mg/kg/injection, schedule: Q01DX009 (ip), vehicle: Klucel (hydroxypropylcellulose) (HPC) 93 % of control | dose: 100.0 mg/kg/injection, schedule: Q04DX003 (ip), vehicle: Klucel (hydroxypropylcellulose) (HPC) 96 % of control | dose: 200.0 mg/kg/injection, schedule: Q01DX009 (ip), vehicle: Klucel (hydroxypropylcellulose) (HPC) 88 % of control | dose: 200.0 mg/kg/injection, schedule: Q04DX003 (ip), vehicle: Klucel (hydroxypropylcellulose) (HPC) 96 % of control | dose: 400.0 mg/kg/injection, schedule: Q01DX009 (ip), vehicle: Klucel (hydroxypropylcellulose) (HPC) 90 % of control | dose: 400.0 mg/kg/injection, schedule: Q04DX003 (ip), vehicle: Klucel (hydroxypropylcellulose) (HPC) 95 % of control

CCOC(=O)C(C#N)C(C)CC#N (configuration not stated)
inactive: [9] 119 % of control | dose: 200.0 mg/kg/injection, schedule: Q01DX009 (ip), vehicle: saline with Tween-80 117 % of control | dose: 400.0 mg/kg/injection, schedule: Q01DX009 (ip), vehicle: saline with Tween-80 108 % of control

O=C(C=C(C(F)(F)F)C(F)(F)F)c1cccc2ccccc12
inactive: dose: 12.5 mg/kg/injection, schedule: Q01DX009 (ip), vehicle: gum acacia 107 % of control | dose: 25.0 mg/kg/injection, schedule: Q01DX009 (ip), vehicle: gum acacia 100 % of control | dose: 50.0 mg/kg/injection, schedule: Q01DX009 (ip), vehicle: gum acacia 100 % of control | dose: 100.0 mg/kg/injection, schedule: Q04DX003 (ip), vehicle: gum acacia 100 % of control | dose: 200.0 mg/kg/injection, schedule: Q04DX003 (ip), vehicle: gum acacia 97 % of control | dose: 400.0 mg/kg/injection, schedule: Q04DX003 (ip), vehicle: gum acacia 91 % of control

CCCCCCCN(CCCCCCC)C(C)=O
inactive: dose: 100.0 mg/kg/injection, schedule: Q01DX001 (ip), vehicle: other 93 % of control | dose: 200.0 mg/kg/injection, schedule: Q01DX001 (ip), vehicle: other 93 % of control | dose: 400.0 mg/kg/injection, schedule: Q01DX001 (ip), vehicle: other 93 % of control

COC1/C=C/OC2(C)Oc3c(C)c(O)c4c(O)c(c(/C=N/NC5CCCCCCCCCCCCCC5)c(O)c4c3C2=O)NC(=O)/C(C)=C\C=C\C(C)C(O)C(C)C(O)C(C)C(OC(C)=O)C1C (configuration not stated)
inactive: dose: 100.0 mg/kg/injection, schedule: Q01DX003 (ip), vehicle: saline with Tween-80 95 % of control | dose: 200.0 mg/kg/injection, schedule: Q01DX003 (ip), vehicle: saline with Tween-80 95 % of control | dose: 400.0 mg/kg/injection, schedule: Q01DX003 (ip), vehicle: saline with Tween-80 102 % of control

CN(C)CC1CC2(CC(CN(C)C)C1=O)OCCO2 (configuration not stated)
inactive: dose: 9.38 mg/kg/injection, schedule: Q01DX001 (ip), vehicle: other 98 % of control | dose: 18.75 mg/kg/injection, schedule: Q01DX001 (ip), vehicle: other 97 % of control | dose: 37.5 mg/kg/injection, schedule: Q01DX001 (ip), vehicle: other 104 % of control
